The record followed here is PubChem BioAssay AID1259427 (Fisher Drug Discovery Resource Center, 2018).

Activity calls are given as the source filed them.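 How the source made its calls: active means EC50 at or below a set limit, with no effect in the paired counter-screen assay; inactive means the rest.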 Bounds are passed on as bounds.

The target of this experiment is Aedes aegypti neuropeptide Y-like receptor 7 (NPYLR7). As to the kind of experiment: agonists of mosquito NPYLR7 receptor, confirmation, cell-based, Aedes aegypti, hit validation, mosquito biting behavior (AID 1259427).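 Further: potency of agonists that activate the receptor and raise the calcium signal.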 The note with it: HEK293T NPYLR7/Galpha15/GCaMP6s, calcium fluorescence.

As usually defined, the EC50 is the concentration at which the effect is half-maximal. Take `CCOC(=O)C1CCCN(c2nc3nonc3nc2N2CCSCC2)C1` (stereo not drawn): the EC50 was > 20 µM (inactive).

As to `COc1ccc(OC)c(CCNc2nc3cnc(-c4ccc(Cl)cc4)cc3n2C)c1`, the EC50 was 19.5 µM.

On to `O=C(O)c1ccccc1-c1c2cc(Br)c(=O)cc-2oc2[c]([Hg])c(O)c(Br)cc12`, for which the EC50 was < 0.039 µM (inactive).

As for `CCOC(=O)c1ccc(N=c2oc3cc(O)ccc3cc2-c2nc3ccccc3[nH]2)cc1`, the EC50 result is “inactive”.

Turning to `CC1CCCCC1OCCNC(=O)C1(c2ccc(F)cc2)CCC1` (stereo not drawn), the EC50 is > 20 µM (inactive).

As for `O=C1OC2(c3cc(Br)c(O)cc3Oc3c2cc(Br)c(O)[c]3[Hg])c2ccccc21` (stereo not drawn), the EC50 was < 0.039 µM (inactive).

Turning to `Cc1ccc(OCCNC(=O)N2CCN(S(=O)(=O)c3ccccc3Cl)CC2)c(C)c1`, the EC50 is > 20 µM (inactive).

On to `CCN(CC)CC[n+]1c(C)cc(C=C2Sc3ccccc3N2C)cc1C`, for which the EC50 is > 20 µM (inactive).

Take `COc1ccc(-c2cccc(-c3ccc(NC(=O)c4oc5ccccc5c4C)cc3)n2)cc1`: the EC50 is > 20 µM (inactive).

For `O=C(c1cnn(-c2ccccc2)n1)N1CCCC(COCc2ccccc2)C1` (stereo not drawn), the EC50 result is “inactive”.

Consider `COc1cc(OC)cc(C(=O)N2CCN(C(C(=O)Nc3ccc(NC(C)=O)cc3)C3CCCC3)CC2)c1` (stereo not drawn), for which the EC50 is > 20 µM (inactive).

Turning to `CCNC(=O)[C@H]1O[C@@H](n2cnc3c(N)ncnc32)C(O)[C@H]1O` (stereo partly drawn), the EC50 result was “inactive”.

For the molecule `Clc1cccc2ccc(CN3CCn4cncc4C3)nc12`, the EC50 is > 20 µM (inactive).

As for `O=C1NC(=O)C2=Cc3ccc(O)cc3OC2(O)N1` (stereo not drawn), the EC50 entry was “inactive”.

For `Cn1c(/C(C#N)=C/c2ccc(N3CCOCC3)o2)nc2ccccc21`, the EC50 was 14.9 µM.

On to `Cc1cc(O)c(CN2CCCCC2)c2c1C(=O)/C(=C/c1cc3ccccc3o1)O2`, for which the EC50 is > 20 µM (inactive).

On to `CCOC(=O)c1c(-c2ccccc2)csc1N=Cc1nc(-c2ccco2)oc1O`, for which the EC50 is > 20 µM (inactive).

Turning to `C[n+]1c2cc(N)ccc2cc2ccc(N)cc21`, the EC50 was < 0.039 µM (inactive).

Regarding `CC(=O)Oc1ccc(Cn2c(C)c(C(=O)NCc3ccc(C#N)cc3)sc2=O)cc1`, the EC50 is > 20 µM (inactive).

On to `C=C(C)Cn1c(C(=O)N2CCN(C(=O)CCC(=O)OCC)C(C)C2)cc2ccoc21` (stereo not drawn), for which the EC50 is 6.05 µM.

Turning to `O=C(NCCSc1ccc(Cl)cc1)c1ccc2c(=O)n3c(nc2c1)CCC3`, the EC50 is > 20 µM (inactive).

As for `O=C1OC(c2ccc(Cl)c([N+](=O)[O-])c2)=N/C1=C\c1cc2cc3c4c(c2oc1=O)CCCN4CCC3`, the EC50 was < 0.039 µM (inactive).

`CCN(CC)c1ccc(/C=C2\SC(=S)N(CC(=O)O)C2=O)c(O)c1`: the EC50 result was “inactive”.

For `O=C1Nc2ccccc2C1C=NN1CCOCC1` (stereo not drawn), the EC50 was > 20 µM (inactive).

For `COc1ccc(C(=O)C=Cc2cc(OC)c(O)c(OC)c2)cc1F`, the EC50 was > 20 µM (inactive).

Take `Cc1cc(C)c2cc3c(cc2n1)CCN3CC(O)CO` (stereo not drawn): the EC50 entry is “inactive”.

On to `Cc1ccc(CN(C(=O)c2cc3cc(Cl)ccc3[nH]2)C(C)C)o1`, for which the EC50 is > 20 µM (inactive).

As to `O=C1c2cccc3c(NCCO)ccc(c23)C(=O)N1CCO`, the EC50 is < 0.039 µM (inactive).

As for `CCCCNC(=O)CCCCCNC(N)=O`, the EC50 was > 20 µM (inactive).

As for `O=C1c2ccccc2C(=O)C1c1ccnc2ccccc12`, the EC50 is > 20 µM (inactive).

Turning to `CCC1CN(C(=O)c2cc(C(C)C)on2)CCC(=O)N1Cc1ccccc1` (stereo not drawn), the EC50 is > 20 µM (inactive).

For the molecule `CSc1nc(N)c2ncn([C@@H]3O[C@H](COP(=O)(O)OP(=O)(O)OP(=O)(O)O)[C@H](O)C3O)c2n1` (stereo partly drawn), the EC50 result was “inactive”.

As to `COc1ccc(CN2CCN(Cc3cccn3-c3ncccn3)CC2CCO)c(C)c1C` (stereo not drawn), the EC50 was > 20 µM (inactive).

In the case of `CN(Cc1cnc2ccccc2n1)C(=O)C1CC2(CCNCC2)CN1` (stereo not drawn), the EC50 was > 20 µM (inactive).

With `CC1C(=O)N(c2cccc(F)c2)CCN1C(=O)C1CC1` (stereo not drawn), the EC50 was > 20 µM (inactive).

Regarding `O=C(Nc1cccc(-c2nnco2)c1)C1CCCCC1`, the EC50 was > 20 µM (inactive).

On to `C#CCN1C(=O)SC(=Cc2ccc(N3CCCCC3)o2)C1=O`, for which the EC50 result is “inactive”.

For the molecule `CCCn1c2c(c(=O)n(C)c1=O)C(=O)C(=Cc1ccc(N(C)C)cc1)N2`, the EC50 entry was “inactive”.

For `CCN(CC)c1ccc(/C=C2\SC(=S)N(CCS(=O)(=O)O)C2=O)cc1`, the EC50 result is “inactive”.

For the molecule `N#C/C(=C\c1ccc(O)c(O)c1)C(=O)NCCCc1ccccc1`, the EC50 is 17.4 µM.

Turning to `O=C1C(=Cc2ccccc2O)NC(=S)N1Cc1ccco1`, the EC50 entry is “inactive”.

With `COc1cc(/C=C/c2nc3ccccc3o2)cc(Cl)c1O`, the EC50 entry was “inactive”.

As to `O=C(CC(c1cccc([N+](=O)[O-])c1)c1c[nH]c2ccccc12)NC1CC1` (stereo not drawn), the EC50 is > 20 µM (inactive).

Take `CCN1CC(=Cc2cc(C)n(C3CC3)c2C)C(=O)C(=Cc2cc(C)n(C3CC3)c2C)C1`: the EC50 is > 20 µM (inactive).

With `COc1ccc(N2C(=O)/C(=C\c3ccc[nH]3)N(C)C2=S)c([N+](=O)[O-])c1`, the EC50 is > 20 µM (inactive).

Take `Cc1ccc(CNC(=O)NC(c2ccc3c(c2)OCCCO3)C(C)C)cc1F` (stereo not drawn): the EC50 was > 20 µM (inactive).

On to `N#CC1C(=N)Oc2cc(O)ccc2C1c1ccccc1I` (stereo not drawn), for which the EC50 entry is “inactive”.

With `O=C(Cc1ccc2c(c1)CCC2)NCC1CCN(c2ccccc2)C1` (stereo not drawn), the EC50 was > 20 µM (inactive).

In the case of `NC(=NCCCCCCN=C(N)N=C(N)Nc1ccc(Cl)cc1)N=C(N)Nc1ccc(Cl)cc1`, the EC50 is 2.66 µM.

`Cc1ccc(Cl)c(Oc2cc(N3CCN(C(=O)c4ccc(Cl)c(Cl)c4)CC3)ncn2)c1`: the EC50 was > 20 µM (inactive).

As to `COc1ccccc1OCCCOc1ccc(Br)cc1Cl`, the EC50 was > 20 µM (inactive).

As to `CCC(CO)[n+]1c(C)cc(C=C2Sc3ccccc3N2Cc2ccccc2)cc1C` (stereo not drawn), the EC50 was 9.8 µM.

On to `COc1ccc(-c2cnn(CCC(N)=O)c2)c(C)c1`, for which the EC50 is > 20 µM (inactive).

In the case of `CC(C)CN1C(=O)C(=Cc2c(N3CCN(CCO)CC3)nc3ccccn3c2=O)SC1=S`, the EC50 is > 20 µM (inactive).

Regarding `COc1cc(C=C2SC(=S)NC2=O)cc(Br)c1O`, the EC50 result is “inactive”.

With `CC(=NNc1ncnc2sc(C)c(C)c12)c1ccccn1`, the EC50 result is “inactive”.

Regarding `CCCCC(CC)CN=C(N)NC(N)=NCCCCCCN=C(N)NC(N)=NCC(CC)CCCC` (stereo not drawn), the EC50 was 17.3 µM.

Consider `Cn1c(C(C#N)=Cc2c(F)c(F)c(F)c(F)c2F)nc2ccccc21`, for which the EC50 is < 0.039 µM (inactive).

Turning to `COc1cc(OC)c(C2=NOC3(CC(=O)N(c4cccc(Cl)c4)C3=O)C2)cc1OC` (stereo not drawn), the EC50 is > 20 µM (inactive).

On to `Cc1ccc(NC2C=CS(=O)(=O)C2)cc1C` (stereo not drawn), for which the EC50 was > 20 µM (inactive).

For `CCn1c(=O)c2c(nc(/C=C/c3ccc(OC)c(OC)c3)n2C)n(CC)c1=O`, the EC50 was > 20 µM (inactive).

Turning to `COC(=O)C(C)Sc1nc2sc3c(c2c(=O)n1C)CCC3` (stereo not drawn), the EC50 was > 20 µM (inactive).

In the case of `CC(C)COCC(O)CN(Cc1cccn1C)CC1CCCO1` (stereo not drawn), the EC50 is > 20 µM (inactive).

Consider `COc1ccc(C2=NN(C(=O)CN3CCOCC3)C(c3nc4ccccc4[nH]3)C2)cc1` (stereo not drawn), for which the EC50 is > 20 µM (inactive).

In the case of `NS(=O)(=O)c1ccc(NC(NC(=O)c2ccco2)C(=O)c2ccc(Cl)cc2)cc1` (stereo not drawn), the EC50 was > 20 µM (inactive).

Consider `N#CC1C(=N)Oc2cc(N)ccc2C1c1c(Cl)cccc1Cl` (stereo not drawn), for which the EC50 was > 20 µM (inactive).

Turning to `COC(=O)C1CCN(S(=O)(=O)c2c(F)cc(F)cc2Br)CC1`, the EC50 is > 20 µM (inactive).

As to `CC(C)c1nc(NC(=O)c2[nH]ncc2Br)n(C)n1`, the EC50 entry was “inactive”.

Regarding `CCOc1cccc(C=C2Oc3cc(O)ccc3C2=O)c1OC`, the EC50 is > 20 µM (inactive).

For `CCN1CCc2c(sc(NC(=O)C3=COCCO3)c2-c2nc3ccccc3s2)C1`, the EC50 result is “inactive”.

For `O=[N+]([O-])c1ccc(-n2nc3ccc4nonc4c3n2)cc1`, the EC50 was > 20 µM (inactive).

Turning to `Nc1ccc2c3c(cccc13)C(=O)N(c1ccccc1)C2=O`, the EC50 entry is “inactive”.

Consider `COc1ccc2nc(C=Cc3cc(Br)c(O)c(OC)c3)sc2c1`, for which the EC50 was > 20 µM (inactive).

With `Nc1c2c(nc3sc4c(c13)CCCC4)CCCCC2`, the EC50 was > 20 µM (inactive).

As to `N#CC(C#N)=C1C=C2C=C(N3CCN(Cc4ccccc4)CC3)CCC2CC1` (stereo not drawn), the EC50 was > 20 µM (inactive).

With `COC(=O)c1cc(N)c(/C=C/c2cccs2)s1`, the EC50 result is “inactive”.

Consider `CCN1CCc2c(sc(NC(=O)c3ccccc3)c2-c2nc3ccccc3s2)C1`, for which the EC50 is > 20 µM (inactive).

Consider `Cc1cccc(C2=N/C(=C\c3cc4cc5c6c(c4oc3=O)CCCN6CCC5)C(=O)O2)c1`, for which the EC50 result was “inactive”.

Regarding `CCC(C)n1cc(/C=C2/C(=O)NC(=O)N(c3ccc4c(c3)OCO4)C2=O)c2ccccc21` (stereo not drawn), the EC50 is > 20 µM (inactive).

For `Cc1ccc2nc(Cn3cnc4c(Cl)cc(Cl)cc4c3=O)cc(=O)n2c1`, the EC50 was > 20 µM (inactive).

Turning to `O=C(O)CN1C(=O)/C(=C/c2cc(Br)c(O)c(Br)c2)SC1=S`, the EC50 entry is “inactive”.

In the case of `O=C1c2cccc3c(NCC(O)CCl)ccc(c23)C(=O)N1c1ccccc1` (stereo not drawn), the EC50 is < 0.039 µM (inactive).

Take `Cc1cc2nc3c(=O)[nH]c(=O)nc-3n(CC(O)C(O)C(O)CO)c2cc1C` (stereo not drawn): the EC50 is < 0.039 µM (inactive).

Turning to `COc1cccc(CN2C(=O)c3cccc(N)c3C2=O)c1`, the EC50 was > 20 µM (inactive).

With `C=CCN1C(=O)/C(=C\c2ccc(O)cc2)SC1=S`, the EC50 was > 20 µM (inactive).

Consider `COc1cc(C=C(C#N)C(=O)OC(C)C)cc(Cl)c1O`, for which the EC50 is > 20 µM (inactive).

As to `COc1ccc(NC[C@@H]2C=C(C)[C@H](Cc3nnc(C)o3)C[C@H]2C(C)C)cn1`, the EC50 is > 20 µM (inactive).

Turning to `CC1CC2(C)Oc3ccccc3C3OCC1(CO)C(C)C32` (stereo not drawn), the EC50 was > 20 µM (inactive).
